# According to paper PMC5218480 (PLoS ONE, 2017):
# Test system: MV-4-11 cells
# Assay: Gene expression microarray analysis (Affymetrix PrimeView) and GSEA
# Assay type: cell-based, human
# Set-up: RFU PODN (11730768_x_at) / Fold change /veh PODN (11730768_x_at) / RFU LINC00158 (11744669_a_at) / Fold change /veh LINC00158 (11744669_a_at) / RFU DUSP10 (11751237_a_at) / Fold change /veh DUSP10 (11751237_a_at) / RFU ID3 (11757404_x_at) / Fold change /veh ID3 (11757404_x_at) / RFU PLEKHG5 (11737974_s_at) / Fold change /veh PLEKHG5 (11737974_s_at) / RFU LRRC4B (11730491_at) / Fold change /veh LRRC4B (11730491_at) / RFU GIMAP4 (11747438_a_at) / Fold change /veh GIMAP4 (11747438_a_at) / RFU KRT8 (11758183_x_at) / Fold change /veh KRT8 (11758183_x_at) / RFU CNN1 (11734310_a_at) / Fold change /veh CNN1 (11734310_a_at) / RFU VPS37D (11726825_at) / Fold change /veh VPS37D (11726825_at) / RFU C10orf10 (11716522_x_at) / Fold change /veh C10orf10 (11716522_x_at) / RFU KIR2DL2 /// KIR2DL4 /// KIR2DL5A /// KIR2DL5B /// KIR2DS1 /// KIR2DS2 /// KIR2DS3 /// KIR2DS4 /// KIR3DL3 /// KIR3DL3 /// KIR3DS1 (11738374_at) / Fold change /veh KIR2DL2 /// KIR2DL4 /// KIR2DL5A /// KIR2DL5B /// KIR2DS1 /// KIR2DS2 /// KIR2DS3 /// KIR2DS4 /// KIR3DL3 /// KIR3DL3 /// KIR3DS1 (11738374_at) / RFU C1QL1 (11718748_at) / Fold change /veh C1QL1 (11718748_at) / RFU TMPRSS4 (11747572_a_at) / Fold change /veh TMPRSS4 (11747572_a_at) / RFU HAMP (11756126_x_at) / Fold change /veh HAMP (11756126_x_at) / RFU RNFT2 (11725882_a_at) / Fold change /veh RNFT2 (11725882_a_at) / RFU NR4A2 (11747474_a_at) / Fold change /veh NR4A2 (11747474_a_at) / RFU ABCC12 (11746883_a_at) / Fold change /veh ABCC12 (11746883_a_at) / RFU TMEM136 (11760407_x_at) / Fold change /veh TMEM136 (11760407_x_at) / RFU CLDN22 /// WWC2 (11732394_at) / Fold change /veh CLDN22 /// WWC2 (11732394_at) / RFU HLA-DPB1 (11760878_x_at) / Fold change /veh HLA-DPB1 (11760878_x_at) / RFU SPINT1 (11716480_a_at) / Fold change /veh SPINT1 (11716480_a_at) / RFU GAP43 (11754022_s_at) / Fold change /veh GAP43 (11754022_s_at) / RFU A4GNT (11735810_at) / Fold change /veh A4GNT (11735810_at) / RFU PRB3 (11715151_x_at) / Fold change /veh PRB3 (11715151_x_at) / RFU TUBB4B (11761932_at) / Fold change /veh TUBB4B (11761932_at) / RFU CAPN14 (11732068_a_at) / Fold change /veh CAPN14 (11732068_a_at) / RFU TMCC2 (11721928_a_at) / Fold change /veh TMCC2 (11721928_a_at) / RFU IRGQ (11745062_a_at) / Fold change /veh IRGQ (11745062_a_at) / RFU FAM174B (11720279_a_at) / Fold change /veh FAM174B (11720279_a_at) / RFU TMPRSS4 (11748680_a_at) / Fold change /veh TMPRSS4 (11748680_a_at) / RFU FAM212B (11763350_a_at) / Fold change /veh FAM212B (11763350_a_at) / RFU PLEKHG5 (11743358_a_at) / Fold change /veh PLEKHG5 (11743358_a_at) / RFU ZSCAN30 (11745921_a_at) / Fold change /veh ZSCAN30 (11745921_a_at) / RFU CMKLR1 (11741424_a_at) / Fold change /veh CMKLR1 (11741424_a_at) / RFU LOC101060620 /// MAPK8IP1 (11723275_at) / Fold change /veh LOC101060620 /// MAPK8IP1 (11723275_at) / RFU SPTSSB (11747773_x_at) / Fold change /veh SPTSSB (11747773_x_at) / RFU PRSS12 (11739890_at) / Fold change /veh PRSS12 (11739890_at) / RFU BIN1 (11741810_x_at) / Fold change /veh BIN1 (11741810_x_at) / RFU WNT11 (11732464_a_at) / Fold change /veh WNT11 (11732464_a_at) / RFU C10orf10 (11716521_a_at) / Fold change /veh C10orf10 (11716521_a_at) / RFU C5orf56 (11738089_at) / Fold change /veh C5orf56 (11738089_at) / RFU CYB561 (11721691_x_at) / Fold change /veh CYB561 (11721691_x_at) / RFU ANKRD19P (11752326_a_at) / Fold change /veh ANKRD19P (11752326_a_at) / RFU OR2T12 /// OR2T33 /// OR2T8 (11738714_s_at) / Fold change /veh OR2T12 /// OR2T33 /// OR2T8 (11738714_s_at) / RFU VCAN (11748164_a_at) / Fold change /veh VCAN (11748164_a_at) / RFU JSRP1 (11732532_at) / Fold change /veh JSRP1 (11732532_at) / RFU KRTAP10-11 (11738290_x_at) / Fold change /veh KRTAP10-11 (11738290_x_at) / RFU MYO3A (11730013_a_at) / Fold change /veh MYO3A (11730013_a_at) / RFU EBF3 (11725865_a_at) / Fold change /veh EBF3 (11725865_a_at) / RFU CAMK2N1 (11719241_x_at) / Fold change /veh CAMK2N1 (11719241_x_at) / RFU C5orf56 (11738088_a_at) / Fold change /veh C5orf56 (11738088_a_at) / RFU OLFML3 (11715873_a_at) / Fold change /veh OLFML3 (11715873_a_at) / RFU LOC100653217 /// NTM (11731650_a_at) / Fold change /veh LOC100653217 /// NTM (11731650_a_at) / RFU MAPK11 (11762145_a_at) / Fold change /veh MAPK11 (11762145_a_at) / RFU FIZ1 (11724087_x_at) / Fold change /veh FIZ1 (11724087_x_at) / RFU OASL (11726364_x_at) / Fold change /veh OASL (11726364_x_at) / RFU SOX15 (11748057_x_at) / Fold change /veh SOX15 (11748057_x_at) / RFU CD79A (11719716_a_at) / Fold change /veh CD79A (11719716_a_at) / RFU HIST1H1D (11736915_at) / Fold change /veh HIST1H1D (11736915_at) / RFU CASKIN2 (11723855_a_at) / Fold change /veh CASKIN2 (11723855_a_at) / RFU LOC730098 (11760151_x_at) / Fold change /veh LOC730098 (11760151_x_at) / RFU OR4N2 (11742367_at) / Fold change /veh OR4N2 (11742367_at) / RFU PRRT2 (11749266_a_at) / Fold change /veh PRRT2 (11749266_a_at) / RFU SNX32 (11753110_a_at) / Fold change /veh SNX32 (11753110_a_at) / RFU CDHR5 (11726645_a_at) / Fold change /veh CDHR5 (11726645_a_at) / RFU RCAN1 (11760418_a_at) / Fold change /veh RCAN1 (11760418_a_at) / RFU FAM167A (11723789_a_at) / Fold change /veh FAM167A (11723789_a_at) / RFU FAM26E (11764081_at) / Fold change /veh FAM26E (11764081_at) / RFU ISYNA1 (11749810_s_at) / Fold change /veh ISYNA1 (11749810_s_at) / RFU ACY1 (11761880_at) / Fold change /veh ACY1 (11761880_at) / RFU 11764098_at / Fold change /veh 11764098_at / RFU SAMD14 (11745864_x_at) / Fold change /veh SAMD14 (11745864_x_at) / RFU NPB (11741838_a_at) / Fold change /veh NPB (11741838_a_at) / RFU TMPRSS6 (11731388_a_at) / Fold change /veh TMPRSS6 (11731388_a_at) / RFU KRTAP10-2 (11738614_at) / Fold change /veh KRTAP10-2 (11738614_at) / RFU ARHGAP8 /// PRR5-ARHGAP8 (11727945_x_at) / Fold change /veh ARHGAP8 /// PRR5-ARHGAP8 (11727945_x_at) / RFU KRTAP5-7 /// NADSYN1 (11734609_at) / Fold change /veh KRTAP5-7 /// NADSYN1 (11734609_at) / RFU RASL12 (11751679_a_at) / Fold change /veh RASL12 (11751679_a_at) / RFU CDKN2B (11736163_a_at) / Fold change /veh CDKN2B (11736163_a_at) / RFU PRF1 (11729649_at) / Fold change /veh PRF1 (11729649_at) / RFU, ZNF638 /// ZNF638-IT1 / Fold change vs veh, ZNF638 /// ZNF638-IT1 / RFU, PANK3 / Fold change vs veh, PANK3 / RFU, SH3YL1 / Fold change vs veh, SH3YL1 / RFU, ZEB2 / Fold change vs veh, ZEB2 / RFU, NRIP1 / Fold change vs veh, NRIP1 / RFU, PTTG1IP / Fold change vs veh, PTTG1IP / RFU, CAPN2 / Fold change vs veh, CAPN2 / RFU, MED14 / Fold change vs veh, MED14 / RFU, SNORA58 / Fold change vs veh, SNORA58 / RFU, C1orf63 / Fold change vs veh, C1orf63 / RFU, LRRFIP1 / Fold change vs veh, LRRFIP1 / RFU, NDUFAF7 / Fold change vs veh, NDUFAF7 / RFU, SLC12A2 / Fold change vs veh, SLC12A2 / RFU, IBTK / Fold change vs veh, IBTK / RFU, ESF1 / Fold change vs veh, ESF1 / Fold change vs veh, TMEM50B / RFU, TAOK1 / Fold change vs veh, TAOK1 / RFU, ACBD3 / Fold change vs veh, ACBD3 / RFU, TMA16 / Fold change vs veh, TMA16 / RFU, RWDD3 / Fold change vs veh, RWDD3 / RFU, BCAT1 / Fold change vs veh, BCAT1 / RFU, EDEM3 / Fold change vs veh, EDEM3 / RFU, TMEM33 / Fold change vs veh, TMEM33 / RFU, WDR75 / Fold change vs veh, WDR75 / RFU, AHCTF1 / Fold change vs veh, AHCTF1 / RFU, TFRC / Fold change vs veh, TFRC / RFU, ZDHHC17 / Fold change vs veh, ZDHHC17 / RFU, NOM1 / Fold change vs veh, NOM1 / RFU, ARL8B / Fold change vs veh, ARL8B / RFU, ZBTB11 / Fold change vs veh, ZBTB11 / RFU, TAMM41 / Fold change vs veh, TAMM41 / RFU, KIAA1704 /// LOC100996395 / Fold change vs veh, KIAA1704 /// LOC100996395 / RFU, ING1 / Fold change vs veh, ING1 / RFU, TRMT61B / Fold change vs veh, TRMT61B / RFU, FUBP3 / Fold change vs veh, FUBP3 / RFU, TP53 / Fold change vs veh, TP53 / RFU, TNKS2 / Fold change vs veh, TNKS2 / RFU, ZFP14 / Fold change vs veh, ZFP14 / RFU, ACTR2 / Fold change vs veh, ACTR2 / RFU, PPP3R1 / Fold change vs veh, PPP3R1 / RFU, PIK3R1 / Fold change vs veh, PIK3R1 / RFU, HNRNPA1 / Fold change vs veh, HNRNPA1 / RFU, RNF170 / Fold change vs veh, RNF170 / RFU, ZNF28 / Fold change vs veh, ZNF28 / RFU, RNGTT / Fold change vs veh, RNGTT / RFU, OGT / Fold change vs veh, OGT / RFU, BRD1 / Fold change vs veh, BRD1 / RFU, MARS / Fold change vs veh, MARS / RFU, ZNF655 / Fold change vs veh, ZNF655 / RFU, FAHD1 / Fold change vs veh, FAHD1 / RFU, BDP1 / Fold change vs veh, BDP1 / RFU, LRRCC1 / Fold change vs veh, LRRCC1 / RFU, ARID1A / Fold change vs veh, ARID1A / RFU, ZNF146 / Fold change vs veh, ZNF146 / RFU, ZNF330 / Fold change vs veh, ZNF330 / RFU, GPN3 / Fold change vs veh, GPN3 / RFU, C9orf123 / Fold change vs veh, C9orf123 / RFU, N4BP2L2 / Fold change vs veh, N4BP2L2 / RFU, ARFIP1 / Fold change vs veh, ARFIP1 / RFU, FAM179B / Fold change vs veh, FAM179B / RFU, BCL10 / Fold change vs veh, BCL10 / RFU, UHRF1BP1L / Fold change vs veh, UHRF1BP1L / RFU, BET1 / Fold change vs veh, BET1 / RFU, CNOT2 / Fold change vs veh, CNOT2 / RFU, ZNF268 / Fold change vs veh, ZNF268 / Fold change vs veh, ZNF507 / RFU, DGCR2 / Fold change vs veh, DGCR2 / RFU, WDSUB1 / Fold change vs veh, WDSUB1 / Fold change vs veh, HSP90B1 /// MIR3652 / RFU, ADSS / Fold change vs veh, ADSS / RFU, GK / Fold change vs veh, GK / RFU, ZNF148 / Fold change vs veh, ZNF148 / RFU, TAF9 / Fold change vs veh, TAF9 / RFU, SLC1A5 / Fold change vs veh, SLC1A5 / RFU, SLMO2 / Fold change vs veh, SLMO2 / RFU, ABCC4 / Fold change vs veh, ABCC4 / RFU, LOC101060439 /// RAP1B / Fold change vs veh, LOC101060439 /// RAP1B / RFU, RFX7 / Fold change vs veh, RFX7 / RFU, GTPBP10 / Fold change vs veh, GTPBP10 / RFU, CNEP1R1 / Fold change vs veh, CNEP1R1 / RFU, BIVM-ERCC5 /// ERCC5 / Fold change vs veh, BIVM-ERCC5 /// ERCC5 / RFU, ILF3 / Fold change vs veh, ILF3 / RFU 11762660_at / Fold change /veh 11762660_at / RFU VCAN (11757783_s_at) / Fold change /veh VCAN (11757783_s_at) / RFU DDX43 (11728927_at) / Fold change /veh DDX43 (11728927_at) / RFU KRT8 (11758188_x_at) / Fold change /veh KRT8 (11758188_x_at) / RFU NKD1 (11759106_at) / Fold change /veh NKD1 (11759106_at) / RFU SRD5A1 (11742802_a_at) / Fold change /veh SRD5A1 (11742802_a_at) / RFU TPSAB1 /// TPSB2 (11721975_s_at) / Fold change /veh TPSAB1 /// TPSB2 (11721975_s_at) / RFU GSTM3 (11746129_a_at) / Fold change /veh GSTM3 (11746129_a_at) / RFU IL23R (11737362_x_at) / Fold change /veh IL23R (11737362_x_at) / RFU TMEM51 (11727254_a_at) / Fold change /veh TMEM51 (11727254_a_at) / RFU PIWIL2 (11732686_x_at) / Fold change /veh PIWIL2 (11732686_x_at) / RFU ORM1 (11744905_x_at) / Fold change /veh ORM1 (11744905_x_at) / RFU CCDC152 (11743942_at) / Fold change /veh CCDC152 (11743942_at) / RFU ECM1 (11717891_a_at) / Fold change /veh ECM1 (11717891_a_at) / RFU IL23R (11748794_a_at) / Fold change /veh IL23R (11748794_a_at) / RFU TNFAIP8L3 (11732012_x_at) / Fold change /veh TNFAIP8L3 (11732012_x_at) / RFU MBOAT4 (11741988_at) / Fold change /veh MBOAT4 (11741988_at) / RFU 11764193_at / Fold change /veh 11764193_at / RFU TMEM53 (11763286_at) / Fold change /veh TMEM53 (11763286_at) / RFU MAGEB2 (11727129_at) / Fold change /veh MAGEB2 (11727129_at) / RFU TMEM200A (11744735_a_at) / Fold change /veh TMEM200A (11744735_a_at) / RFU CCDC152 (11751479_a_at) / Fold change /veh CCDC152 (11751479_a_at) / RFU FAM211A (11726209_a_at) / Fold change /veh FAM211A (11726209_a_at) / RFU RGS16 (11746705_a_at) / Fold change /veh RGS16 (11746705_a_at) / RFU VCAN (11755009_s_at) / Fold change /veh VCAN (11755009_s_at) / RFU RHOB (11743442_s_at) / Fold change /veh RHOB (11743442_s_at) / RFU RGS16 (11720943_a_at) / Fold change /veh RGS16 (11720943_a_at) / RFU RGS16 (11720944_at) / Fold change /veh RGS16 (11720944_at) / RFU, VPS4B / Fold change vs veh, VPS4B / RFU, CREB1 / Fold change vs veh, CREB1 / RFU, DNAJC13 / Fold change vs veh, DNAJC13 / RFU, GNAQ / Fold change vs veh, GNAQ / RFU, CDK5R1 / Fold change vs veh, CDK5R1 / RFU, ZRANB3 / Fold change vs veh, ZRANB3 / RFU, CUL4A / Fold change vs veh, CUL4A / RFU, CCNY / Fold change vs veh, CCNY / RFU, UFL1 / Fold change vs veh, UFL1 / RFU, COG3 / Fold change vs veh, COG3 / RFU, DIAPH2 / Fold change vs veh, DIAPH2 / RFU, SKA2 / Fold change vs veh, SKA2 / RFU, AFF3 / Fold change vs veh, AFF3 / RFU, LMF1 / Fold change vs veh, LMF1 / RFU, IPO11 / Fold change vs veh, IPO11 / RFU, DFFB / Fold change vs veh, DFFB / RFU, FOXP1 / Fold change vs veh, FOXP1 / RFU, CARD8 / Fold change vs veh, CARD8 / RFU, STRN3 / Fold change vs veh, STRN3 / RFU, ADK / Fold change vs veh, ADK / RFU, RASSF2 / Fold change vs veh, RASSF2 / RFU, WIPF1 / Fold change vs veh, WIPF1 / RFU, LARP1B / Fold change vs veh, LARP1B / RFU, RASA1 / Fold change vs veh, RASA1 / RFU, RB1 / Fold change vs veh, RB1 / RFU, PPFIA1 / Fold change vs veh, PPFIA1 / RFU, MAT2A / Fold change vs veh, MAT2A / RFU, CCT5 / Fold change vs veh, CCT5 / RFU, WDR92 / Fold change vs veh, WDR92 / RFU, CUX1 / Fold change vs veh, CUX1 / RFU, TTC7A / Fold change vs veh, TTC7A / RFU, TMEM135 / Fold change vs veh, TMEM135 / RFU, DEPTOR / Fold change vs veh, DEPTOR / RFU, CPM / Fold change vs veh, CPM / RFU, DNAJB6 / Fold change vs veh, DNAJB6 / RFU, CACNA2D3 / Fold change vs veh, CACNA2D3 / RFU, DTX4 / Fold change vs veh, DTX4 / RFU, TFCP2 / Fold change vs veh, TFCP2 / RFU, GMCL1 /// GMCL1P1 / Fold change vs veh, GMCL1 /// GMCL1P1 / RFU, AEBP2 / Fold change vs veh, AEBP2 / RFU, SNHG1 /// SNORD22 /// SNORD25 /// SNORD26 /// SNORD27 /// SNORD28 /// SNORD29 /// SNORD31 / Fold change vs veh, SNHG1 /// SNORD22 /// SNORD25 /// SNORD26 /// SNORD27 /// SNORD28 /// SNORD29 /// SNORD31 / Fold change (Aza/veh), C12orf56 (ProbeSet 11735607_a_at) / Fold change (ACY-1035/veh), C12orf56 (ProbeSet 11735607_a_at) / Fold change (Aza/veh), FGFR1OP (ProbeSet 11751329_s_at) / Fold change (ACY-1035/veh), FGFR1OP (ProbeSet 11751329_s_at) / Fold change (Aza/veh), VPS36 (ProbeSet 11739960_a_at) / Fold change (ACY-1035/veh), VPS36 (ProbeSet 11739960_a_at) / RFU SYPL1 (11715823_x_at) / Fold change /veh SYPL1 (11715823_x_at) / RFU IGFBP7 (11715501_s_at) / Fold change /veh IGFBP7 (11715501_s_at) / RFU REEP3 (11722064_at) / Fold change /veh REEP3 (11722064_at) / RFU IGLL1 (11728026_x_at) / Fold change /veh IGLL1 (11728026_x_at): dose or concentration left out as unconfirmed
# Conditions: ProbeSet 11727641_at; LIST B
smiles,measurement,value
Nc1ncn([C@@H]2O[C@H](CO)[C@@H](O)[C@H]2O)c(=O)n1 [azacitidine],"Fold change vs veh, NOM1",1.06
